For eight molecules, inhibition and Ki results are on record in ChEMBL document CHEMBL3045849, “Mode of inhibition of acetylcholinesterase by monoterpenoids and implications for pest control” (Ind Crops Prod, 2010).

The target in assay [1] is Acetylcholinesterase (Electrophorus electricus) (UniProt O42275). Kind of assay: Mixed type inhibition of Electrophorus electricus (electric eel) acetylcholinesteraseAChE using acetylthiocholine iodide substrate by Ellman method based colorimetry.
Assay [2] has the same target. The assay is described as follows: Reversible inhibition of Electrophorus electricus (electric eel)acetylcholinesterase (AChE) using acetylthiocholine iodide substrate by Ellman method based colorimetry. A general note: In Ellman's method for cholinesterases, released thiocholine reacts with DTNB.
For assay [3], the target named is Acetylcholinesterase (Electrophorus electricus, UniProt O42275). The assay is described as follows: Inhibition of Electrophorus electricus (electric eel) acetylcholinesterase (AChE) using acetylthiocholine iodide substrate by Ellman method based colorimetry.
The target in assay [4] is Acetylcholinesterase (Electrophorus electricus) (UniProt O42275). The assay is described as follows: Competitive inhibition of Electrophorus electricus (electric eel) acetylcholinesterase (AChE) using acetylthiocholine iodide substrate by Ellman method based colorimetry.
Assay [5] shares this target. Kind of assay: Inhibition of Electrophorus electricus (electric eel) acetylcholinesterase (AChE) at 100 mM using 10 mM acetylthiocholine iodide substrate after 15 min by Ellman method based colorimetry.
The target is the same in assay [6]. Kind of assay: Inhibition of Electrophorus electricus (electric eel) acetylcholinesterase (AChE) at 50 mM using 5 mM acetylthiocholine iodide substrate after 15 min by Ellman method based colorimetry.
Assay [7] has the same target. The assay is described as follows: Inhibition of Electrophorus electricus (electric eel) acetylcholinesterase (AChE) at 10 mM using 2 mM acetylthiocholine iodide substrate after 15 min by Ellman method based colorimetry.
Assay [8] shares this target. Kind of assay: Inhibition of Electrophorus electricus (electric eel) acetylcholinesterase (AChE) at 1 mM using 1 mM acetylthiocholine iodide substrate after 15 min by Ellman method based colorimetry.

The source made the active and inactive calls. No cut-off for these calls is given here.

One may read the inhibition as the change of the read-out against control, counted positive when it falls. What is called Ki is a measure of affinity in units of concentration, obtained from inhibition or displacement.

Acetylcholinesterase, sequence (O42275 whole entry): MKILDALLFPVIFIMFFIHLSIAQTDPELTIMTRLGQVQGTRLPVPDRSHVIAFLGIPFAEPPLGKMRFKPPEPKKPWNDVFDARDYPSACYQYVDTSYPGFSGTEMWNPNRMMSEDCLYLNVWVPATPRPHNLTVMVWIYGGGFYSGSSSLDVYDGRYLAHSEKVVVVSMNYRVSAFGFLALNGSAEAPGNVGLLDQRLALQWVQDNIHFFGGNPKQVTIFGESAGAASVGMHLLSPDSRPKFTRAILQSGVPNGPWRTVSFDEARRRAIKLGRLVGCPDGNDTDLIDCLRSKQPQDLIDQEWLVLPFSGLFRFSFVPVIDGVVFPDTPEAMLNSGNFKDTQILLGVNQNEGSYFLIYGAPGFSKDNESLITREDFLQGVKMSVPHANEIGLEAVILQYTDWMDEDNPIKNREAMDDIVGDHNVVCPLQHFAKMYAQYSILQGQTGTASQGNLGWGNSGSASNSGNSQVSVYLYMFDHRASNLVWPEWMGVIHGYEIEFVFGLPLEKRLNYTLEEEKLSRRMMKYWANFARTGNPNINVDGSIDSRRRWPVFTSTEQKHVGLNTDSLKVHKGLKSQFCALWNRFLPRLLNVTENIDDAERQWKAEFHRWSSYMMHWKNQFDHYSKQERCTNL
Acetylcholinesterase (Electrophorus electricus), sequence (O42275 24-633 limits assumed): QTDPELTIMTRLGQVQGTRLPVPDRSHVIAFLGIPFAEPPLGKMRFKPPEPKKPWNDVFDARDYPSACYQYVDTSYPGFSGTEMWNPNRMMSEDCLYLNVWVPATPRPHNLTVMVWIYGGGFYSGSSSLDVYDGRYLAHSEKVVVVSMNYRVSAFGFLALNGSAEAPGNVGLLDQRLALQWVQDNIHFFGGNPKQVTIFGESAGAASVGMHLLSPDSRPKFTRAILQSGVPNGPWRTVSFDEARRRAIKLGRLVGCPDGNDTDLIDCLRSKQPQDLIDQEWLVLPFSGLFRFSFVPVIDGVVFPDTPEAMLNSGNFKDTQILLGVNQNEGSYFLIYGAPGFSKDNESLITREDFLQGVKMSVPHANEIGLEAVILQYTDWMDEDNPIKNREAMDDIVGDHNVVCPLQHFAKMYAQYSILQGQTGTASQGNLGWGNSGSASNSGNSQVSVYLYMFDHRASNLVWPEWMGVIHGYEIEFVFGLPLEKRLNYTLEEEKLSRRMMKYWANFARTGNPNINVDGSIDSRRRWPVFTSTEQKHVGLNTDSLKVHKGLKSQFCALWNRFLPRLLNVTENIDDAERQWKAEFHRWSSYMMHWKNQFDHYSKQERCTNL

With `C=C(C)[C@H]1CC=C(C)C(=O)C1` [(S)(+)CARVONE], the inhibition entry in assay [1] and in assay [2] was “Active” each time. Further, the inhibition constant (Ki) in assay [3] (read-out: Ki) is 300 µM.
Turning to `C/C=C/c1ccc(OC)cc1` [ANETHOLE], the inhibition entry in assay [2] is “Active”. Further, the inhibition constant (Ki) result in assay [3] is listed as “Not Active”.
On to `CC12CCC(CC1=O)C2(C)C` (configuration not stated) [CAMPHOR], for which the inhibition entry in assay [1] and in assay [2] was “Active” throughout. Further, the inhibitory constant (Ki) in assay [3] (read-out: Ki) was found to be 50 µM.
Turning to `C=CCc1ccc(OC)cc1` [ESTRAGOLE], the inhibition result in assay [1] and in assay [2] was “Active” in each case. Also, in assay [3] (read-out: Ki), the Ki is 150 µM.
Take `CC12CCC(C1)C(C)(C)C2=O` (configuration not stated) [FENCHONE]: the inhibition entry in assay [2] and in assay [4] was “Active” each time. In addition, the inhibition in assay [5] was 90.7%; in assay [6], 84.1%; in assay [7] it was 79.8%; in assay [8] it was 53.8%. Moreover, in assay [3] (read-out: Ki), the inhibition constant Ki stood at 400 µM.
For the molecule `CC1=CCC(C(C)C)=CC1` [GAMMA-TERPINENE], the inhibition result in assay [2] and in assay [4] was “Active” throughout. For the same molecule, the inhibition constant Ki in assay [3] (read-out: Ki) is 200 µM.
`CC(C)=CCC/C(C)=C/CO` [GERANIOL]: the inhibition result in assay [2] and in assay [4] was “Active” each time. The Ki in assay [3] (read-out: Ki) was 100 µM.
Turning to `C=CC(C)(O)CCC=C(C)C` (configuration not stated) [LINALOOL], the inhibition result in assay [2] and in assay [4] was “Active” throughout. The Ki in assay [3] (read-out: Ki) was 300 µM.
